Test results from BindingDB's records for doi:10.1016/j.bmcl.2018.04.050 (Abbvie, 2018).

Assays:
[1] = Binding affinity to thrombin cleavable N-terminal 6His tagged and 13C-IVLM labeled human KDM4A tandem TUDOR domain (897 to 1011 residues) expressed in Escherichia coli BL21(DE3)-T1R assessed as apparent Kd for H3(1-10)K4me3 peptide at 1 mM by ITC method (Rvb = 5.2 +/- 0.3 uM)
[2] = Binding affinity to thrombin cleavable N-terminal 6His tagged and 13C-IVLM labeled human KDM4A tandem TUDOR domain (897 to 1011 residues) expressed in Escherichia coli BL21(DE3)-T1R assessed as apparent Kd for H3(1-10)K4me3 peptide at 0.5 mM by ITC method (Rvb = 5.2 +/- 0.3 uM)
[3] = Binding affinity to thrombin cleavable N-terminal 6His tagged and 13C-IVLM labeled human KDM4A tandem TUDOR domain (897 to 1011 residues) expressed in Escherichia coli BL21(DE3)-T1R assessed as apparent Kd for H3(1-10)K4me3 peptide at 2.5 mM by ITC method (Rvb = 5.2 +/- 0.3 uM)

Kd [1]: 22.7 µM
Kd [2]: 15.5 µM
Kd [3]: 55.1 µM
SMILES: CN(C)C[C@H]1C2CCC(c3ccccc3)(C2)[C@H]1O (stereo partly drawn)
